According to ChEMBL document CHEMBL4138123, “Design, synthesis and biological evaluation of novel pyrazolochalcones as potential modulators of PI3K/Akt/mTOR pathway and inducers of apoptosis in breast cancer cells” (Eur J Med Chem, 2017):

Assays:
Assay type in all cases: functional
MCF7 = assay: Cytotoxicity against human MCF7 cells assessed as cell growth at 0.01 uM after 48 hrs by sulforhodamine B assay relative to control; details: MCF7, 48 h, read-out: Activity
SK-MEL-5 [1] = assay: Cytotoxicity against human SK-MEL-5 cells assessed as growth inhibition after 48 hrs by sulforhodamine B assay; details: SK-MEL-5, 48 h
RPMI-8226 = assay: Cytotoxicity against human RPMI8226 cells assessed as cell growth at 0.01 uM after 48 hrs by sulforhodamine B assay relative to control; details: RPMI-8226, 48 h, read-out: Activity
SK-MEL-5 [2] = assay: Cytotoxicity against human SK-MEL-5 cells assessed as cell growth at 0.1 uM after 48 hrs by sulforhodamine B assay relative to control; details: SK-MEL-5, 48 h, read-out: Activity
NCI-H460 = assay: Cytotoxicity against human NCI-H460 cells assessed as cell growth at 0.1 uM after 48 hrs by sulforhodamine B assay relative to control; details: NCI-H460, 48 h, read-out: Activity
NCI-H322M [3] = assay: Cytotoxicity against human NCI-H322M cells assessed as cell growth at 1 uM after 48 hrs by sulforhodamine B assay relative to control; details: read-out: Activity
Malme-3M [4] = assay: Cytotoxicity against human MALME-3M cells assessed as cell growth at 100 uM after 48 hrs by sulforhodamine B assay relative to control; details: read-out: Activity
HCT-116 = assay: Cytotoxicity against human HCT116 cells assessed as growth inhibition after 48 hrs by sulforhodamine B assay; details: HCT-116, 48 h
NCI-H226 = assay: Cytotoxicity against human NCI-H226 cells assessed as cell growth at 10 uM after 48 hrs by sulforhodamine B assay relative to control; details: NCI-H226, 48 h, read-out: Activity
HOP-62 = assay: Cytotoxicity against human HOP62 cells assessed as cell growth at 0.01 uM after 48 hrs by sulforhodamine B assay relative to control; details: HOP-62, 48 h, read-out: Activity
UACC-62 = assay: Cytotoxicity against human UACC62 cells assessed as cell growth at 100 uM after 48 hrs by sulforhodamine B assay relative to control; details: UACC-62, 48 h, read-out: Activity
TK-10 [5] = assay: Cytotoxicity against human TK10 cells assessed as cell growth at 10 uM after 48 hrs by sulforhodamine B assay relative to control; details: TK-10, 48 h, read-out: Activity
KM12 [6] = assay: Cytotoxicity against human KM12 cells assessed as cell growth at 0.01 uM after 48 hrs by sulforhodamine B assay relative to control; details: KM12, 48 h, read-out: Activity
SK-MEL-28 = assay: Cytotoxicity against human SK-MEL-28 cells assessed as cell growth at 0.1 uM after 48 hrs by sulforhodamine B assay relative to control; details: SK-MEL-28, 48 h, read-out: Activity
CCRF-CEM = assay: Cytotoxicity against human CCRF-CEM cells assessed as cell growth at 1 uM after 48 hrs by sulforhodamine B assay relative to control; details: read-out: Activity
NCI-H322M [7] = assay: Cytotoxicity against human NCI-H322M cells assessed as growth inhibition after 48 hrs by sulforhodamine B assay
T47D = assay: Cytotoxicity against human T47D cells assessed as cell growth at 100 uM after 48 hrs by sulforhodamine B assay relative to control; details: read-out: Activity
COLO 205 [8] = assay: Cytotoxicity against human COLO205 cells assessed as cell growth at 1 uM after 48 hrs by sulforhodamine B assay relative to control; details: COLO 205, 48 h, read-out: Activity
KM12 [9] = assay: Cytotoxicity against human KM12 cells assessed as cell growth at 1 uM after 48 hrs by sulforhodamine B assay relative to control; details: KM12, 48 h, read-out: Activity
MDA-MB-435 = assay: Cytotoxicity against human MDA-MB-435 cells assessed as growth inhibition after 48 hrs by sulforhodamine B assay; details: MDA-MB-435, 48 h
MDA-MB-231 = assay: Cytotoxicity against human MDA-MB-231 cells assessed as cell growth at 1 uM after 48 hrs by sulforhodamine B assay relative to control; details: MDA-MB-231, 48 h, read-out: Activity
RXF 393 = assay: Cytotoxicity against human RXF393 cells assessed as cell growth at 1 uM after 48 hrs by sulforhodamine B assay relative to control; details: RXF 393, 48 h, read-out: Activity
COLO 205 [10] = assay: Cytotoxicity against human COLO205 cells assessed as cell growth at 100 uM after 48 hrs by sulforhodamine B assay relative to control; details: COLO 205, 48 h, read-out: Activity
TK-10 [11] = assay: Cytotoxicity against human TK10 cells assessed as cell growth at 0.1 uM after 48 hrs by sulforhodamine B assay relative to control; details: TK-10, 48 h, read-out: Activity
OVCAR-3 = assay: Cytotoxicity against human OVCAR3 cells assessed as cell growth at 0.01 uM after 48 hrs by sulforhodamine B assay relative to control; details: OVCAR-3, 48 h, read-out: Activity
NCI-H522 = assay: Cytotoxicity against human NCI-H522 cells assessed as growth inhibition after 48 hrs by sulforhodamine B assay; details: NCI-H522, 48 h
786-0 = assay: Cytotoxicity against human 786-0 cells assessed as cell growth at 0.01 uM after 48 hrs by sulforhodamine B assay relative to control; details: 786-0, 48 h, read-out: Activity
UO-31 = assay: Cytotoxicity against human UO31 cells assessed as growth inhibition after 48 hrs by sulforhodamine B assay; details: UO-31, 48 h
Malme-3M [12] = assay: Cytotoxicity against human MALME-3M cells assessed as growth inhibition after 48 hrs by sulforhodamine B assay
SF-268 = assay: Cytotoxicity against human SF268 cells assessed as cell growth at 0.1 uM after 48 hrs by sulforhodamine B assay relative to control; details: SF-268, 48 h, read-out: Activity
MDA-MB-468 = assay: Cytotoxicity against human MDA-MB-468 cells assessed as growth inhibition after 48 hrs by sulforhodamine B assay; details: MDA-MB-468, 48 h
NCI-H23 = assay: Cytotoxicity against human NCI-H23 cells assessed as cell growth at 10 uM after 48 hrs by sulforhodamine B assay relative to control; details: NCI-H23, 48 h, read-out: Activity
DU-145 = assay: Cytotoxicity against human DU145 cells assessed as growth inhibition after 48 hrs by sulforhodamine B assay; details: DU-145, 48 h

`COc1cc(-c2cc(/C=C/C(=O)c3ccc(F)c(F)c3)[nH]n2)cc(OC)c1OC` showed a growth at 0.01 µM (MCF7) of 91%, an LC50 (concentration killing 50% of cells) (SK-MEL-5 [1]) of 26.7 µM and a TGI (SK-MEL-5 [1]) of 6.41 µM. For the same compound, the growth at 0.01 µM (RPMI-8226) was 94%, the growth at 0.1 µM (SK-MEL-5 [2]) was 96% and the growth at 0.1 µM (NCI-H460) was 102%. The growth at 1 µM (NCI-H322M [3]) was 86%, the growth at 100 µM (Malme-3M [4]) was -31% and the LC50 (HCT-116) was 94.2 µM. For the same compound, the TGI (HCT-116) was 13.9 µM, the growth at 10 µM (NCI-H226) was 16% and the growth at 0.01 µM (HOP-62) was 100%. For the same compound, the growth at 100 µM (UACC-62) was -81%, the growth at 10 µM (TK-10 [5]) was -13% and the growth at 0.01 µM (KM12 [6]) was 96%. For the same compound, the growth at 0.1 µM (SK-MEL-28) was 102%, the growth at 1 µM (CCRF-CEM) was 91% and the TGI (NCI-H322M [7]) was > 100 µM. The CC50 (NCI-H322M [7]; read-out: LC50 (the source's name)) was > 100 µM, the growth at 100 µM (T47D) was -11% and the growth at 1 µM (COLO 205 [8]) was 92%. For the same compound, the growth at 1 µM (KM12 [9]) was 95%, the LC50 (MDA-MB-435) was > 100 µM and the TGI (MDA-MB-435) was 13.3 µM. It also gave a growth at 1 µM (MDA-MB-231) of 74%, a growth at 1 µM (RXF 393) of 82% and a growth at 100 µM (COLO 205 [10]) of -99%. It also gave a growth at 0.1 µM (TK-10 [11]) of 88%, a growth at 0.01 µM (OVCAR-3) of 102% and an LC50 (NCI-H522) of 65.2 µM. The TGI (NCI-H522) was 4.48 µM, the growth at 0.01 µM (786-0) was 95% and the LC50 (UO-31) was > 100 µM. The TGI (UO-31) was 14.2 µM, the LC50 (Malme-3M [12]) was > 100 µM and the TGI (Malme-3M [12]) was 9.4 µM. For the same compound, the growth at 0.1 µM (SF-268) was 94%, the GI50 (MDA-MB-468) was 2.22 µM and the LC50 (MDA-MB-468) was > 100 µM. It also gave a TGI (MDA-MB-468) of 9.47 µM and a growth at 10 µM (NCI-H23) of -7%.

For `COc1ccc(-c2cc(/C=C/C(=O)c3ccc4c(c3)OCO4)[nH]n2)cc1OC`, the GI50 (SK-MEL-5 [1]) was 1.58 µM, the GI50 (DU-145) was 1.64 µM and the GI50 (HCT-116) was 0.36 µM. For the same compound, the GI50 (NCI-H322M [7]) was 2.67 µM, the GI50 (MDA-MB-435) was 1.72 µM and the GI50 (NCI-H522) was 1.69 µM. For the same compound, the GI50 (UO-31) was 1.5 µM, the GI50 (Malme-3M [12]) was 2.59 µM and the GI50 (MDA-MB-468) was 1.09 µM.
